Test results taken from patent US9388215B2, “Compositions and methods of using islet neogenesis peptides and analogs thereof” (SHENZHEN HIGHTIDE BIOPHARMACEUTICAL, LTD., priority 2013, dated 2016).
Ends that are not written are not given here.

Key:
[1] = Peptide stability in rat plasma; format: in vitro ADME; details: 100 μg/mL, 37° C.; FIG. 12, 13
Description: (§1) The stability of peptides was also tested in rat, mouse and human plasma. Briefly, a certain amount of peptides and eucatropine powder (positive control) was accurately weighed. Test compounds were dissolved in 50% methanol-water solution and diluted to 20 mg/mL, and eucatropine was dissolved in dimethylsulfoxide (DMSO) and diluted to 10 mM, as a stock solution. Eucatropine stock solution was diluted to 0.2 mM with DMSO as a working solution. A stop reagent was prepared containing 200 ng/mL midazolam and tolbutamide in acetonitrile. A volume of 300 μL of stop solution was added to each well of a 96-well deep-well plate placed on ice beforehand.
(§2) For the stability studies, peptides and eucatropine were spiked into plasma respectively, mixed well, and then 100 μL of each mixture solution was transferred into the pre-cooled stop reagent as 0 time point sample. The remaining mixtures were incubated in a 37° C. water bath with shaking at 100 rpm (n=2). The final incubation concentration was 1 μM for eucatropine and 100 μg/mL for all test compounds.
(§3) At desired time points, 100 μL of incubation mixture was transferred to the stop reagent to precipitate proteins. Samples were vortexed and centrifuged at RCF 5000×g for 10 minutes, and supernatant was transferred to a test plate. The samples were analyzed by LC-MS/MS.
(§4) Slope was calculated by plotting the natural logarithm of the percentage of remaining amount of test compounds and time, and T1/2 was calculated in accordance with the following formula.
For stability in rat plasma, the incubation time was 0, 15, 30, 60 and 120 min for Peptide 1 and eucatropine, and 0, 15, 30, 60, 120, and 240 min for Peptide 12, Peptide 16, Peptide 29 and Peptide 31.
In another stability study in rat plasma, the incubation time was 0, 30, 60 120 and 240 min for Peptide 2, Peptide 52, Peptide 64 and eucatropine.

[2] = Peptide stability in mouse plasma; format: in vitro ADME; details: 100 μg/mL, 37° C.; FIG. 3, 5, 14
Description: as §1, with “in” for “in rat,”
as §2, with “[…]” for “1 μM”
as §3, §4
For stability in mouse plasma, the incubation time was 0, 5, 15, 30 and 60 min for Peptide 1 and eucatropine; 0, 15, 30, 60, 120, 240 and 480 min for Peptide 12, Peptide 16 and Peptide 29.
In another stability study in mouse plasma, the incubation time was 0, 30, 60 and 120 min for Peptide 2 and eucatropine; 0, 30, 60, 120, 240 and 960 min for Peptide 52 and Peptide 54.
as §1, §2
For stability in mouse plasma, the incubation time was 0, 15, 30, 60 and 120 min for Peptide 1 and eucatropine; 0, 15, 30, 60, 120, and 240 min for Peptide 31.

[3] = system: pancreatic islets; experiment: Glucose-stimulated insulin secretion (GSIS) of isolated islets; format: cell-based, rat; details: 12.0 mM glucose; 10 μg/mL peptide or 100 nM GLP-1; 60 min; FIG. 8
Description: The pancreases were procured from male adult Sprague-Dawley (SD) rats. After 7 days acclimation, the animals were sacrificed by cervical dislocation and the entire pancreas was removed and digested with collagenase to isolate islets. After digestion, islets were maintained at 37° C. in RPMI 1640 (Carlsbad Calif., USA) pH 7.4, containing 10% (v/v) fetal calf serum, 1% penicillin/streptomycin, and 10 mM glucose in a humid atmosphere (5% CO2/95% O2), without the addition of any compound (control), or with the addition of 100 nM glucagon like peptide-1 (GLP-1); or 10 μg/mL Peptide 1, Peptide 12, or Peptide 16, as summarized in Table 4 below. Cultured islets were rinsed in Krebs-Ringer bicarbonate buffer (KRB), pH 7.4, previously gassed with a mixture of CO2/O2 (5/95%), and pre-incubated in 1.0 ml of KRB containing 0.5% (w/v) BSA and 1.5 mM glucose at 37° C. for 45 min. After this period, groups of 5 islets were incubated in 0.6 ml KRB with the addition of 1.5 or 12.0 mM glucose, with or without the addition of peptides for 60 min. At the end of the incubation period, aliquots of the medium were collected for insulin quantitation.

[4] = system: normal C57BL/6J mice; experiment: Induction of small β-cell clusters in normal C57BL/6J mice (islet size distribution); format: in vivo, mouse; details: normal mice
Description: After a 1-week acclimation, C57BL/6J female mice were randomly divided into 4 groups. The two control groups received either 10 mL/kg sterile normal saline (n=4) or scrambled peptide (Peptide 3, 25 mg/kg) (n=5) via subcutaneous injection for 10 days. The other two groups received INGAP-PP (Peptide 1) or INGAP-PP analog Peptide 7 at a dose of 25 mg/kg per day respectively (n=7 per group) for the same period. Body weight and 6 hour fasting blood glucose were measured before treatment and after the last dosing of treatment. Plasma and pancreatic insulin were also measured at the end of the study. On day 11, the pancreas was removed from each animal, cleared of fat and lymph nodes, weighed, and fixed in 10% neutral buffered formalin (NBF) for no longer than 24 hours before processing for morphometric analysis.
Immunohistochemistry analysis was used to determine pancreatic islet size distribution.

Substance	stability in rat plasma [1]	stability in mouse plasma [2]	further results
Ac-IGLHDPTQGTEPAGE-NH2 [Peptide 62, Ac-IGLHDPTQGTEPAGE-NH2]	exhibited good stability in rat plasma and were significantly more stable than HIP		
Ac-IGLHDPTQGTEPAGE-OH [Peptide 52, Ac-IGLHDPTQGTEPAGE-OH]	exhibited good stability in rat plasma and were significantly more stable than HIP	exhibited good stability in mouse plasma and were significantly more stable than HIP	
Ac-IGLHDPTQGTEPNGE-OH [Peptide 54, Ac-IGLHDPTQGTEPNGE-OH]		exhibited good stability in mouse plasma and were significantly more stable than HIP	
GLP-1: Glucagon like peptide-1, 100 nM, included as a positive control in GSIS (HAEGTFTSDVSSYLEGQAAKEFIAWLVKGR; ends and bridges not checked; UniProt P01275 98-127, looked up) [reference compound]			glucose-stimulated insulin release vs islets without peptide [3]: released significantly more insulin than those cultured without the addition of peptides
H-SHPNGSGTIGLHDPL-OH [Peptide 3, H-SHPNGSGTIGLHDPL-OH]			effect on body weight, blood glucose, plasma insulin, pancreas insulin, pancreas weight ([4]; 25 mg/kg per day sc for 10 days, compared to saline group): did not affect body weight, blood glucose, plasma insulin, pancreas insulin, or pancreas weight; all parameters measured, scrambled peptide versus normal saline ([4]; 25 mg/kg, 10 days): no difference
